Results reported in patent US9399626B2, “2-thiopyrimidinones” (Pfizer Inc., priority 2011, dated 2016).

Biological target: T1, MPO (purified from human polynuclear leukocytes) (Homo sapiens, UniProt P05164)
T1 construct: purified from human polynuclear leukocytes; purchased Calbiochem/EMD Biosciences; host or cells: human polynuclear leukocytes (natural source)
Experiment: MPO Amplex Red Activity Assay
Format: biochemical
In short: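 Human leukocyte MPO […] oxidises 30 μM Amplex Red with 2 μM H2O2 in 50 mM NaPi pH 7.4, 150 mM NaCl, 1 mM DTPA, 2% DMSO. Resorufin fluorescence (ex 530/em 580 nm) read every 20 s, minus catalase background. kobs from the first 600 s, corrected for auto-inactivation, fit versus [I] for kinact/KI.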

T1 sequence (P05164 279-745 limits assumed): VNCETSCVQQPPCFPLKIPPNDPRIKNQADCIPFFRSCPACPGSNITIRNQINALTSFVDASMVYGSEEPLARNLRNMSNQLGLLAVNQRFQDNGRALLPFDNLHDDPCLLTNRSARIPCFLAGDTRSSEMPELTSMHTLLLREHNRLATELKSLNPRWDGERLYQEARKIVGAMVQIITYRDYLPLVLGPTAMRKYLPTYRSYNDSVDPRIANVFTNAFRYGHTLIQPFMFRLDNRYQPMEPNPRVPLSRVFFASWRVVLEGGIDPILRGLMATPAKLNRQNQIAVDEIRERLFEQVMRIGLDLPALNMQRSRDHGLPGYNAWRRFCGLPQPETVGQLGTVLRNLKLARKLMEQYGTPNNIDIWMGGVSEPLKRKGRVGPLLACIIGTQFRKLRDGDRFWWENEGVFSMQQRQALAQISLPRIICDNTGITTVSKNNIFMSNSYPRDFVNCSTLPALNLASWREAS
T1 sequence (P05164 165-273 limits assumed): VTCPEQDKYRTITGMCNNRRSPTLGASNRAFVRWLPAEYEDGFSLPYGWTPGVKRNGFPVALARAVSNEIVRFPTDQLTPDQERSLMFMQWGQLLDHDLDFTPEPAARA

Row | MPO kinact/Ki (Table 1, 2 μM H2O2, pH 7.4) | MPO kinact/Ki (Table 1A, 2 μM H2O2, pH 7.4) | Compound
1 | 1920 1/s per M |  | COc1ccc(-c2cc(=O)[nH]c(=S)n2CCNC(=N)NC#N)c(OC)c1 [Example 136, 1-cyano-3-{2-[6-(2,4-dimethoxyphenyl)-4-oxo-2-thioxo-3,4-dihydropyrimidin-1(2H)-yl]ethyl}guanidine]
2 | 3510 1/s per M |  | COc1ccc(-c2cc(=O)[nH]c(=S)n2CC(N)=O)cc1OC [Example 83, 2-[6-(3,4-dimethoxyphenyl)-4-oxo-2-thioxo-3,4-dihydropyrimidin-1(2H)-yl]acetamide]
3 |  | 6580 1/s per M | NC(=O)Cn1c(-c2cccc3c2OCC3)cc(=O)[nH]c1=S [Example 364, 2-[6-(2,3-dihydro-1-benzofuran-7-yl)-4-oxo-2-thioxo-3,4-dihydropyrimidin-1(2H)-yl]acetamide]
